Data: patent US20260028365A1 (BIOGEN MA INC., priority 2022, published 2026)
Counter-ions that a name gives are not always drawn. Like-named read-outs stand apart in the source and are kept apart here.

Legend:
Tyk2 = Tyk2 (Homo sapiens (Human), UniProt P29597); experiment: pSTAT4 Cell Assay (MSD, NK92 cells); type: cell-based
JH2 domain of human Tyk2 = JH2 domain of human Tyk2 (Homo sapiens (Human), UniProt P29597); experiment: JH2 Biochemical Assay (TR-FRET probe displacement); type: binding
Protocol: The inhibitory potency of compounds of the disclosure against the kinase activity of recombinantly generated JH2 domain of human Tyk2 was evaluated in a plate-based assay using a TR-FRET assay platform. Briefly, 2 nM of recombinant JH2 domain [10×His-tagged TYK2 JH2 domain (amino acid 575-876)] was combined with 2 nM probe ((S)-6-amino-9-(2-carboxy-4-((1-(3-(8-methyl-5-(methylamino)-8H-imidazo[4,5-d]thiazolo[5,4-b]pyridin-2-yl)phenyl)ethyl)carbamoyl)phenyl)-3-iminio-5-sulfo-3H-xanthene-4-sulfonate), 0.1 nM Tb-labeled anti-His antibody, and compounds of disclosure for 60 minutes. Compounds are tested at either 10 μM or 1 μM top concentration, 10 points of 3-fold dilution. The TR-FRET signal inversely correlates to the amount of probe displaced by compounds and signal was calculated by taking the ratio of fluorescence at 520 nm and 495 nm. The data was normalized and the percent activity versus log concentration of compound was fitted with a 4-parameter logistic model to generate IC50 curves.

[1] = JH2 domain of human Tyk2, TR-FRET probe displacement
[2] = TR-FRET probe displacement, JH2 domain of human Tyk2
[3] = TR-FRET probe displacement, JH2 domain

Tyk2, sequence (P29597 whole entry, the tested form may be a part): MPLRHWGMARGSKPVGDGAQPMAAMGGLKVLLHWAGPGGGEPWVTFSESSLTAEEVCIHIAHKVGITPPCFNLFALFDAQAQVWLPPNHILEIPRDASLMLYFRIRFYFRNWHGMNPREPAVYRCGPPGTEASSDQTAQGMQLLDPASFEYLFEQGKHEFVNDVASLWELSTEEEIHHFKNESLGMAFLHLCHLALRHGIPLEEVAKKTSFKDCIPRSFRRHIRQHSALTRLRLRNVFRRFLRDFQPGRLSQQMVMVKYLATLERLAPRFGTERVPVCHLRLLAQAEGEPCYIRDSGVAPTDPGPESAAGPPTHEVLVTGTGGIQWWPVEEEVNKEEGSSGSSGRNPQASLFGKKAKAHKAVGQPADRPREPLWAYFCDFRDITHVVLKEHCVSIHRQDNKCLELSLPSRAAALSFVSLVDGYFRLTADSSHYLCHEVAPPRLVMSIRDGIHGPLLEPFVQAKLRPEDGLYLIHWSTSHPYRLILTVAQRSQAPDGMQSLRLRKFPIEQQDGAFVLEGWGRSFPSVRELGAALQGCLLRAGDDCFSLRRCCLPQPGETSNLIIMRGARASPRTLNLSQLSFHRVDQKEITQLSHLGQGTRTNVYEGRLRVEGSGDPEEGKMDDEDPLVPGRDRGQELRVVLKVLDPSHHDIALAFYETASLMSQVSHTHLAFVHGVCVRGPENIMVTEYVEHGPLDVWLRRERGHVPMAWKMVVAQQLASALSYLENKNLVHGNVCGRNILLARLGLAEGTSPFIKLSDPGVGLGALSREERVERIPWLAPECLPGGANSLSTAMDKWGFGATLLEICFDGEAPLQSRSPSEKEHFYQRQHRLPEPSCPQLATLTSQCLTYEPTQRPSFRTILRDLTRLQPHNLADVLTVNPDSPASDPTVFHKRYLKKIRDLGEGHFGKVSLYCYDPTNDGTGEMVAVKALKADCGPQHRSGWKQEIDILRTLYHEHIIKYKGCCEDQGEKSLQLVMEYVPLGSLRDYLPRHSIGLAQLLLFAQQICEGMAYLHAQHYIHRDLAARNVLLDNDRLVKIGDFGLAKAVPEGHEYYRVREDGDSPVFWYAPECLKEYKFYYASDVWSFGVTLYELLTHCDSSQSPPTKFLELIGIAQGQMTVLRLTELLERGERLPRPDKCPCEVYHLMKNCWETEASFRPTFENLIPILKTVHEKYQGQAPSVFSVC
JH2 domain of human Tyk2, sequence (P29597 575-876): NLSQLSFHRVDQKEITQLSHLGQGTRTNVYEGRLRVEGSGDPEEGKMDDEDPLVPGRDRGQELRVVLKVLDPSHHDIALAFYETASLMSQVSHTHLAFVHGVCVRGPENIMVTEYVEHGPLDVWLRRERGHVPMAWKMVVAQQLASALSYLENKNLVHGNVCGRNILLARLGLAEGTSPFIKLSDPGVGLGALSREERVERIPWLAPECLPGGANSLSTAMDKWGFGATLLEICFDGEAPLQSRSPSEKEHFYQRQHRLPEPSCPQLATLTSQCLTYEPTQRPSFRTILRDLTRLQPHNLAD

Row | Compound | IC50 (Tyk2; MSD) [nM] | IC50 (JH2 domain of human Tyk2; [1]) [nM] | IC50 (JH2 domain of human Tyk2; [2]) [nM] | IC50 (Tyk2) [nM] | IC50 (JH2 domain of human Tyk2; [3]) [nM]
1 | CCc1cc(Nc2cc(NC(C)=O)ncc2OCCF)nc(C(C)(F)F)n1 [Example 407, N-(4-((2-(1,1-difluoroethyl)-6-ethylpyrimidin-4-yl)amino)-5-(2-fluoroethoxy)pyridin-2-yl)acetamide] | ≤ 10 | ≤ 10 | – | – | –
2 | CC(=O)Nc1cc(Nc2cc(C)nc(C(C)(F)F)n2)c(OC[C@H]2C[C@H](F)C2)cn1 [Example 332, N-(4-((2-(1,1-difluoroethyl)-6-methylpyrimidin-4-yl)amino)-5-(((1r,3r)-3-fluorocyclobutyl)methoxy)pyridin-2-yl)acetamide] | 10 to 100 | – | ≤ 10 | – | –
3 | CC(=O)Nc1cc(Nc2cccc(C(C)(F)F)n2)c(-c2ncc(F)cn2)cn1 [Example 186, N-(4-((6-(1,1-difluoroethyl)pyridin-2-yl)amino)-5-(5-fluoropyrimidin-2-yl)pyridin-2-yl)acetamide] | 10 to 100 | – | ≤ 10 | – | –
4 | CC(=O)Nc1cc(Nc2cc(C)nc(C(C)(F)F)n2)c(-c2nnc(N(C)C)s2)cn1 [Example 236, N-(4-((2-(1,1-difluoroethyl)-6-methylpyrimidin-4-yl)amino)-5-(5-(dimethylamino)-1,3,4-thiadiazol-2-yl)pyridin-2-yl)acetamide] | ≤ 10 | – | ≤ 10 | – | –
5 | CCOc1cnc(NC(C)=O)cc1Nc1cc(OC2CC(F)(F)C2)nc(C(C)(F)F)n1 [Example 459, N-(4-((6-(3,3-difluorocyclobutoxy)-2-(1,1-difluoroethyl)pyrimidin-4-yl)amino)-5-ethoxypyridin-2-yl)acetamide] | 10 to 100 | ≤ 10 | – | – | –
6 | CC(=O)Nc1cc(Nc2cc(C)nc(C(C)(F)F)n2)c(OCc2ncc(C)o2)cn1 [Example 341, N-(4-((2-(1,1-difluoroethyl)-6-methylpyrimidin-4-yl)amino)-5-((5-methyloxazol-2-yl)methoxy)pyridin-2-yl)acetamide] | 10 to 100 | – | ≤ 10 | – | –
7 | CC(=O)Nc1cc(Nc2cc(C)nc(C(C)(F)F)n2)c(OCc2c(C)ncnc2C)cn1 [Example 330, N-(4-((2-(1,1-difluoroethyl)-6-methylpyrimidin-4-yl)amino)-5-((4,6-dimethylpyrimidin-5-yl)methoxy)pyridin-2-yl)acetamide] | ≥ 1000 | – | 10 to 100 | – | –
8 | CCc1cc(Nc2cc(NC(C)=O)ncc2-c2ccnc(COC)n2)nc(C(C)(F)F)n1 [Example 720, N-(4-((2-(1,1-difluoroethyl)-6-ethylpyrimidin-4-yl)amino)-5-(2-(methoxymethyl)pyrimidin-4-yl)pyridin-2-yl)acetamide] | ≤ 10 | ≤ 10 | – | – | –
9 | CCOc1cnc(NC(C)=O)cc1Nc1nc(C(C)(F)F)ncc1F [Example 34, N-(4-((2-(1,1-difluoroethyl)-5-fluoropyrimidin-4-yl)amino)-5-ethoxypyridin-2-yl)acetamide] | ≥ 1000 | – | 10 to 100 | – | –
10 | CCc1cc(Nc2cc(NC(C)=O)ncc2-c2cnc(CN(C)C)cn2)nc(C(C)(F)F)n1 [Example 895, N-(4-((2-(1,1-difluoroethyl)-6-ethylpyrimidin-4-yl)amino)-5-(5-((dimethylamino)methyl)pyrazin-2-yl)pyridin-2-yl)acetamide] | – | – | – | ≤ 10 | ≤ 10
11 | CC(=O)Nc1cc(Nc2ccnc(C(C)(F)F)n2)c(-c2cnc(N3C[C@H]4C[C@@H](C3)O4)cn2)cn1 [Example 887, N-(5-(5-((1R,5S)-6-oxa-3-azabicyclo[3.1.1]heptan-3-yl)pyrazin-2-yl)-4-((2-(1,1-difluoroethyl)pyrimidin-4-yl)amino)pyridin-2-yl)acetamide] | – | – | – | 10 to 100 | ≤ 10
12 | CC(=O)Nc1cc(Nc2ccnc(C(C)(F)F)n2)c(-c2ccc3c(n2)OCC(C)(C)O3)cn1 [Example 144, N-(4-((2-(1,1-difluoroethyl)pyrimidin-4-yl)amino)-5-(2,2-dimethyl-2,3-dihydro-[1,4]dioxino[2,3-b]pyridin-6-yl)pyridin-2-yl)acetamide trifluoroacetate] | ≤ 10 | – | ≤ 10 | – | –
13 | CCOc1cnc(NC(C)=O)cc1Nc1ccc(-c2ccn(C)n2)c(OC)n1 [Example 491, N-(5-ethoxy-4-((6-methoxy-5-(1-methyl-1H-pyrazol-3-yl)pyridin-2-yl)amino)pyridin-2-yl)acetamide] | ≥ 1000 | 10 to 100 | – | – | –
14 | CCOc1cc(-c2cnc(NC(C)=O)cc2Nc2cc(C)nc(C(C)(F)F)n2)ncn1 [Example 243, N-(4-((2-(1,1-difluoroethyl)-6-methylpyrimidin-4-yl)amino)-5-(6-ethoxypyrimidin-4-yl)pyridin-2-yl)acetamide] | 10 to 100 | – | ≤ 10 | – | –
15 | COCCn1cc(-c2cnc(NC(C)=O)cc2Nc2cc(C)nc(C(C)(F)F)n2)nn1 [Example 259, N-(4-((2-(1,1-difluoroethyl)-6-methylpyrimidin-4-yl)amino)-5-(1-(2-methoxyethyl)-1H-1,2,3-triazol-4-yl)pyridin-2-yl)acetamide] | ≤ 10 | – | ≤ 10 | – | –
16 | CC(=O)Nc1cc(Nc2ccnc(C(C)(F)F)n2)c(-c2nc3c(s2)CCN(C)C3)cn1 [Example 797, N-(4-((2-(1,1-difluoroethyl)pyrimidin-4-yl)amino)-5-(5-methyl-4,5,6,7-tetrahydrothiazolo[4,5-c]pyridin-2-yl)pyridin-2-yl)acetamide] | – | – | – | ≤ 10 | ≤ 10
17 | COc1cc(-c2cnc(NC(C)=O)cc2Nc2ccnc(C(C)(F)F)n2)nc(C)n1 [Example 163, N-(4-((2-(1,1-difluoroethyl)pyrimidin-4-yl)amino)-5-(6-methoxy-2-methylpyrimidin-4-yl)pyridin-2-yl)acetamide] | 10 to 100 | – | ≤ 10 | – | –
18 | CCc1cc(Nc2cc(NC(C)=O)ncc2-c2ccc(F)cn2)nc(C(C)(F)F)n1 [Example 582, N-(4′-((2-(1,1-difluoroethyl)-6-ethylpyrimidin-4-yl)amino)-5-fluorO[2,3′-bipyridin]-6′-yl)acetamide] | ≤ 10 | ≤ 10 | – | – | –
19 | CCOc1cnc(NC(C)=O)cc1Nc1cc(OC2CC3(COC3)C2)nc(C(C)(F)F)n1 [Example 297, N-(4-((6-((2-oxaspiro[3.3]heptan-6-yl)oxy)-2-(1,1-difluoroethyl)pyrimidin-4-yl)amino)-5-ethoxypyridin-2-yl)acetamide] | ≤ 10 | – | ≤ 10 | – | –
20 | CC(=O)Nc1cc(Nc2ccnc(C(C)(F)F)n2)c(-c2ccn(CC3CC3)n2)cn1 [Example 704, N-(5-(1-(cyclopropylmethyl)-1H-pyrazol-3-yl)-4-((2-(1,1-difluoroethyl)pyrimidin-4-yl)amino)pyridin-2-yl)acetamide] | ≤ 10 | ≤ 10 | – | – | –
21 | [2H]C([2H])([2H])N1CCn2nc(-c3cnc(NC(C)=O)cc3Nc3cc(C)nc(C(C)(F)F)n3)cc2C1 [Example 545, N-(4-((2-(1,1-difluoroethyl)-6-methylpyrimidin-4-yl)amino)-5-(5-(methyl-d3)-4,5,6,7-tetrahydropyrazolo[1,5-a]pyrazin-2-yl)pyridin-2-yl)acetamide] | ≤ 10 | ≤ 10 | – | – | –
22 | CC(=O)Nc1cc(Nc2cc(C)nc(C(C)(F)F)n2)c(OC2COC2)cn1 [Example 86, N-(4-((2-(1,1-difluoroethyl)-6-methylpyrimidin-4-yl)amino)-5-(oxetan-3-yloxy)pyridin-2-yl)acetamide] | 10 to 100 | – | ≤ 10 | – | –
23 | CC(=O)Nc1cc(Nc2cc(C)nc(C(C)(F)F)n2)c(-c2cccc(OC(F)F)n2)cn1 [Example 150, N-(4′-((2-(1,1-difluoroethyl)-6-methylpyrimidin-4-yl)amino)-6-(difluoromethoxy)-[2,3′-bipyridin]-6′-yl)acetamide] | ≤ 10 | – | ≤ 10 | – | –
24 | CC(=O)Nc1cc(Nc2cc(C)nc(C(C)(F)F)n2)c(-c2cc(C)cnn2)cn1 [Example 252, N-(4-((2-(1,1-difluoroethyl)-6-methylpyrimidin-4-yl)amino)-5-(5-methylpyridazin-3-yl)pyridin-2-yl)acetamide] | ≤ 10 | – | ≤ 10 | – | –
25 | CCN1CCn2nc(-c3cnc(NC(C)=O)cc3Nc3cc(C)nc(C(C)(F)F)n3)cc2C1 [Example 283, N-(4-((2-(1,1-difluoroethyl)-6-methylpyrimidin-4-yl)amino)-5-(5-ethyl-4,5,6,7-tetrahydropyrazolo[1,5-a]pyrazin-2-yl)pyridin-2-yl)acetamide] | ≤ 10 | – | ≤ 10 | – | –
26 | CC(=O)Nc1cc(Nc2ccnc(C(C)(F)F)n2)c(-c2cnc(COC(F)F)cn2)cn1 [Example 692, N-(4-((2-(1,1-difluoroethyl)pyrimidin-4-yl)amino)-5-(5-((difluoromethoxy)methyl)pyrazin-2-yl)pyridin-2-yl)acetamide] | 100 to 1000 | ≤ 10 | – | – | –
27 | COc1cc(-c2cnc(NC(C)=O)cc2Nc2cc(C)nc(C(C)(C)F)n2)ncn1 [Example 196, N-(4-((2-(2-fluoropropan-2-yl)-6-methylpyrimidin-4-yl)amino)-5-(6-methoxypyrimidin-4-yl)pyridin-2-yl)acetamide] | 10 to 100 | – | ≤ 10 | – | –
28 | CC(=O)Nc1cc(Nc2ccnc(C(C)(F)F)n2)c(-c2ccn3ncnc3n2)cn1 [Example 537, N-(5-([1,2,4]triazolo[1,5-a]pyrimidin-5-yl)-4-((2-(1,1-difluoroethyl)pyrimidin-4-yl)amino)pyridin-2-yl)acetamide] | 10 to 100 | ≤ 10 | – | – | –
